The record followed here is patent US20250332173A1, “COMPOUNDS AND METHODS FOR MODULATING NUCLEIC ACID SPLICING” (REMIX THERAPEUTICS INC., priority 2021, published 2025).

pIC50: −log10 of the molar value. Like-named read-outs stand apart in the source and are kept apart here.

One assay has as its system Target C. Put plainly: HiBiT protein abundance assay, Target C (Promega Nano-Glo HiBiT Lytic Detection System, knock-in K562 cell line). The class given is cell-based, human. The note with it: Homo sapiens, K562, 24 h, HiBiT K562 cell line, 24 hours, top dose 10 μM; read-out: Effect on protein abundance, Target C (IC50 category). The method, boiled down: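 Knock-in K562 cells carrying HiBiT-tagged Target C, 10,000 per well, treated 24 h at 37 °C with 10-point threefold dilutions (top 10 μM final, ≤0.25% DMSO). Lytic HiBiT luminescence read; response normalised to unmodified K562 and DMSO controls, four-parameter fit interpolated at 50% for IC50.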

The test system of a further assay is HTT mRNA. The assay is described as follows: RT-qPCR splicing assay, HTT canonical junction (CJ) and alternative junction (AJ) mRNA. The class given is cell-based, human. The settings on record: Homo sapiens; for AC50: increase in HTT alternative junction (AJ) mRNA, read-out: HTT AJ AC50. The method, boiled down:
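24 h treatment, 37 °C/5% CO2; A673 or K562; 11-pt 3-fold series, top 10 uM final; DMSO ≤0.25%. Cell lysis with DNase I, then 1-step RT-qPCR. Housekeeping normalization: PPIA (A673), GAPDH or GUSB (K562).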

[1] abbreviates: decrease in HTT canonical junction (CJ) mRNA, RT-qPCR, read-out: HTT CJ IC50.
The mark [2] stands for this setting: Table 5 panel, canonical junction qPCR, compound concentration having 50% response in CJ decrease, read-out: HTT IC50 (decrease in CJ mRNA levels).
Where [3] appears, read: canonical junction qPCR panel, Table 5, read-out: HTT (decrease in CJ mRNA levels, IC50).

For the compound `Cc1cc(-c2ccc3c(c2)CCN(C2CCNCC2)C3=O)cc2cn(C)nc12` [Compound 219, 6-(2,7-dimethylindazol-5-yl)-2-(piperidin-4-yl)-3,4-dihydroisoquinolin-1-one], the negative logarithm of the IC50 (pIC50) is under 5.00 with Target C, 5.00 to 6.00 in the assay with HTT mRNA (setting [1]) and 5.00 to 6.00 with HTT mRNA (setting [2]). In addition, in the assay on HTT mRNA (RT-qPCR), the AC50 was in the range of 1 to 10 µM.
On to `O=C1c2ccc(-c3cn[nH]c3)cc2CCN1C1CCNCC1` [Compound 220, 2-(piperidin-4-yl)-6-(1H-pyrazol-4-yl)-3,4-dihydroisoquinolin-1-one], for which the pIC50 with Target C, in the assay on HTT mRNA (setting [1]) and with HTT mRNA (setting [2]) was under 5.00 in each case. Moreover, in the assay on HTT mRNA (RT-qPCR), the AC50 is over 10 µM.
In the case of `Cc1cn2cc(-c3ccc4c(c3)CCN(C3CCNCC3)C4=O)nc2c(C)n1` [Compound 221, 6-[6,8-dimethylimidazo[1,2-a]pyrazin-2-yl]-2-(piperidin-4-yl)-3,4-dihydroisoquinolin-1-one], the pIC50 in the assay with Target C, in the assay on HTT mRNA (setting [1]) and in the assay on HTT mRNA (setting [2]) was under 5.00 throughout. The AC50 in the assay on HTT mRNA (RT-qPCR) is over 10 µM.
Regarding `Cc1cn2nc(-c3ccc4c(c3)CCN(C3CCNCC3)C4=O)nc2c(C)n1` [Compound 222, 6-[6,8-dimethyl-[1,2,4]triazolo[1,5-a]pyrazin-2-yl]-2-(piperidin-4-yl)-3,4-dihydroisoquinolin-1-one], the negative-log IC50 (pIC50) in the assay with Target C, in the assay with HTT mRNA (setting [1]) and in the assay with HTT mRNA (setting [2]) was 5.00 to 6.00 throughout. The AC50 in the assay with HTT mRNA (RT-qPCR) lay in the range of 1 to 10 µM.
Consider `Cc1cn2nc(-c3ccc4c(c3)CCN(C3CCNCC3)C4=O)cc2c(C)n1` [Compound 223, 6-[4,6-dimethylpyrazolo[1,5-a]pyrazin-2-yl]-2-(piperidin-4-yl)-3,4-dihydroisoquinolin-1-one], for which the negative logarithm of the IC50 (pIC50) is under 5.00 in the assay on Target C, 5.00 to 6.00 in the assay with HTT mRNA (setting [1]) and 5.00 to 6.00 with HTT mRNA (setting [2]). Besides, the AC50 with HTT mRNA (RT-qPCR) lay within 1 to 10 µM.
In the case of `Cc1cn2cc(-c3ccc4c(c3)CCN(C3CCNCC3)C4=O)ncc2n1` [Compound 224], the pIC50 in the assay on Target C, in the assay with HTT mRNA (setting [1]) and in the assay with HTT mRNA (setting [2]) was under 5.00 each time. For the same compound, the AC50 in the assay on HTT mRNA (RT-qPCR) is over 10 µM.
In the case of `Cn1cc2cc(-c3ccc4c(c3)CCN(C3CCNCC3)C4=O)cc(F)c2n1` [Compound 225], the pIC50 in the assay on Target C, with HTT mRNA (setting [1]) and with HTT mRNA (setting [2]) was under 5.00 in each case. The AC50 with HTT mRNA (RT-qPCR) was over 10 µM.
For `Cc1nc2c(F)cc(-c3ccc4c(c3)CCN(C3CCNCC3)C4=O)cc2s1` [Compound 226], the pIC50 in the assay with Target C, in the assay with HTT mRNA (setting [1]) and with HTT mRNA (setting [2]) was under 5.00 each time. In addition, the AC50 with HTT mRNA (RT-qPCR) is over 10 µM.
`Cc1cn2cc(-c3ccc4c(=O)n(C5CCN(C)CC5)cnc4c3F)cc(F)c2n1` [Compound 227]: the figures for the negative logarithm of the IC50 (pIC50) in the assay with Target C, in the assay on HTT mRNA (setting [1]) and in the assay with HTT mRNA (setting [2]) were under 5.00, 5.00 to 6.00 and 5.00 to 6.00, respectively. Also, the AC50 in the assay with HTT mRNA (RT-qPCR) lay in the range of 1 to 10 µM.
Regarding `Cc1cn2cc(-n3cnc4cc(N5CCNCC5)ccc4c3=O)cc(F)c2n1` [Compound 228], the pIC50 with Target C, in the assay with HTT mRNA (setting [1]) and with HTT mRNA (setting [2]) was 6.00 to 7.00 throughout. In addition, the AC50 in the assay on HTT mRNA (RT-qPCR) was in the range of 0.1 to 1 µM.
Turning to `Cc1cn2cc(-n3cnc4cc(N5CCN(C)CC5)ccc4c3=O)cc(F)c2n1` [Compound 229], the pIC50 in the assay on Target C, with HTT mRNA (setting [1]) and with HTT mRNA (setting [2]) was under 5.00 throughout. Also, the AC50 in the assay on HTT mRNA (RT-qPCR) was over 10 µM.
Take `Cc1cn2cc(-c3cc(F)c4c(=O)n(C5CCNCC5)cnc4c3)cc(F)c2n1` [Compound 230]: the pIC50 is 6.00 to 7.00 with Target C, over 7.00 with HTT mRNA (setting [1]) and over 7.00 in the assay with HTT mRNA (setting [2]). Moreover, in the assay on HTT mRNA (RT-qPCR), the AC50 is under 0.1 µM.
As for `Cc1cn2cc(-c3cc(F)c4c(=O)n(C5CCN(C)CC5)cnc4c3)cc(F)c2n1` [Compound 231, 5-fluoro-7-{8-fluoro-2-methylimidazo[1,2-a]pyridin-6-yl}-3-(1-methylpiperidin-4-yl)quinazolin-4-one], the pIC50 in the assay with Target C, in the assay on HTT mRNA (setting [1]) and in the assay on HTT mRNA (setting [2]) was 6.00 to 7.00 each time. Further, the concentration at half-maximal activity (AC50) in the assay on HTT mRNA (RT-qPCR) is 0.1 to 1 µM.
`Cc1cc(-c2cc(F)c3c(=O)n(C4CCNCC4)cnc3c2)cc2cn(C)nc12` [Compound 232]: the pIC50 with Target C is 6.00 to 7.00; in the assay with HTT mRNA (setting [1]) it was over 7.00; in the assay on HTT mRNA (setting [2]), over 7.00. Also, in the assay on HTT mRNA (RT-qPCR), the half-maximal activity concentration (AC50) was under 0.1 µM.
Turning to `Cc1cc(-c2cc(F)c3c(=O)n(C4CCN(C)CC4)cnc3c2)cc2cn(C)nc12` [Compound 233], the pIC50 in the assay on Target C, in the assay with HTT mRNA (setting [1]) and with HTT mRNA (setting [2]) was 6.00 to 7.00 throughout. Moreover, in the assay with HTT mRNA (RT-qPCR), the half-maximal activity concentration (AC50) lay within 0.1 to 1 µM.
Take `Cc1cc(-c2ccc3c(=O)n(C4CCNCC4)cnc3c2F)cc2cn(C)nc12` [Compound 234]: the pIC50 in the assay on Target C, in the assay with HTT mRNA (setting [1]) and in the assay with HTT mRNA (setting [2]) was 5.00 to 6.00 in each case. Moreover, the half-maximal activity concentration (AC50) in the assay on HTT mRNA (RT-qPCR) lay in the range of 1 to 10 µM.
In the case of `Cc1cc(-c2ccc3c(=O)n(C4CCN(C)CC4)cnc3c2F)cc2cn(C)nc12` [Compound 235], the pIC50 in the assay on Target C, with HTT mRNA (setting [1]) and with HTT mRNA (setting [2]) was under 5.00 in each case. Further, in the assay with HTT mRNA (RT-qPCR), the half-maximal activity concentration (AC50) was over 10 µM.
For the compound `Cc1cn2cc(-c3ccc4c(=O)n(C5CCNC6(CC6)C5)cnc4c3)cc(F)c2n1` (stereo not drawn) [Compound 236], the figures for the pIC50 in the assay on Target C, with HTT mRNA (setting [1]) and with HTT mRNA (setting [2]) were 5.00 to 6.00, 6.00 to 7.00 and 6.00 to 7.00, respectively. Besides, the AC50 with HTT mRNA (RT-qPCR) is 0.1 to 1 µM.
As to `Cc1cn2cc(-c3ccc4c(=O)n(C5CCNC(C)(C)C5)cnc4c3)cc(F)c2n1` (stereo not drawn) [Compound 237], the results for the pIC50 in the assay with Target C, with HTT mRNA (setting [1]) and in the assay with HTT mRNA (setting [2]) were 5.00 to 6.00, 6.00 to 7.00 and 6.00 to 7.00, respectively. The half-maximal activity concentration (AC50) in the assay with HTT mRNA (RT-qPCR) was in the range of 0.1 to 1 µM.
For `Cc1cn2nc(-n3cnc4cc(N5CCNCC5)ccc4c3=O)cc(C)c2n1` [Compound 241], the negative logarithm of the IC50 (pIC50) in the assay on Target C, with HTT mRNA (setting [1]) and with HTT mRNA (setting [2]) was 5.00 to 6.00 throughout. Also, the half-maximal activity concentration (AC50) with HTT mRNA (RT-qPCR) was in the range of 1 to 10 µM.
Take `Cc1cn2nc(-c3cc(F)c4c(=O)n(C5CCN(C)CC5)cnc4c3)cc(C)c2n1` [Compound 242]: the negative logarithm of the IC50 (pIC50) in the assay with Target C, in the assay with HTT mRNA (setting [1]) and in the assay with HTT mRNA (setting [2]) was over 7.00 throughout. In addition, the concentration at half-maximal activity (AC50) in the assay with HTT mRNA (RT-qPCR) is under 0.1 µM.
On to `Cc1cn2cc(-c3ncc4c(=O)n([C@H]5CCNC6(CC6)C5)ccc4n3)cc(F)c2n1` [Compound 1458, 6-[(7S)-4-azaspiro[2.5]octan-7-yl]-2-(8-fluoro-2-methyl-imidazo[1,2-a]pyridin-6-yl)pyrido[4,3-d]pyrimidin-5-one], for which the pIC50 with Target C, in the assay with HTT mRNA (setting [1]) and with HTT mRNA (setting [3]) was 6.00 to 7.00 throughout. For the same compound, the concentration at half-maximal activity (AC50) in the assay on HTT mRNA (RT-qPCR) was in the range of 0.1 to 1 µM.
For the compound `Cc1c(O)c(-c2ncc3c(=O)n([C@H]4CC[C@H](N(C)C)CC4)ccc3n2)cc2cn(C)nc12` [Compound 1459, 6-((1r,4r)-4-(dimethylamino)cyclohexyl)-2-(6-hydroxy-2,7-dimethyl-2H-indazol-5-yl)pyrido[4,3-d]pyrimidin-5(6H)-one], the negative logarithm of the IC50 (pIC50) in the assay on Target C, with HTT mRNA (setting [1]) and in the assay on HTT mRNA (setting [3]) was 6.00 to 7.00 in each case. Moreover, in the assay with HTT mRNA (RT-qPCR), the AC50 was 0.1 to 1 µM.
For the compound `Cc1c(O)c(-c2ncc3c(=O)n([C@H]4CC[C@@H](N(C)C)CC4)ccc3n2)cc2cn(C)nc12` [Compound 1460, 6-((1s,4s)-4-(dimethylamino)cyclohexyl)-2-(6-hydroxy-2,7-dimethyl-2H-indazol-5-yl)pyrido[4,3-d]pyrimidin-5(6H)-one], the pIC50 is 5.00 to 6.00 in the assay with Target C, 5.00 to 6.00 in the assay with HTT mRNA (setting [1]) and 6.00 to 7.00 in the assay on HTT mRNA (setting [3]). In addition, the AC50 in the assay with HTT mRNA (RT-qPCR) fell in the range of 0.1 to 1 µM.
